Results taken from ChEMBL document CHEMBL1131476, “Synthesis of a methylenebis(phosphonate) analogue of mycophenolic adenine dinucleotide: a glucuronidation-resistant MAD analogue of NAD” (J Med Chem, 1998).

Tests used:
K562 = assay: Inhibitory activity against growth of human erythroleukemia […] cells; format: functional, cell-based
[1] = biological target: Inosine-5'-monophosphate dehydrogenase 1 (Homo sapiens, UniProt P20839); assay: Inhibitory activity against human Inosine-5'-monophosphate dehydrogenase 1 (IMPDH type I isoform); Range is 33-37 nM
Sequence of Inosine-5'-monophosphate dehydrogenase 1 (P20839 whole entry, canonical isoform): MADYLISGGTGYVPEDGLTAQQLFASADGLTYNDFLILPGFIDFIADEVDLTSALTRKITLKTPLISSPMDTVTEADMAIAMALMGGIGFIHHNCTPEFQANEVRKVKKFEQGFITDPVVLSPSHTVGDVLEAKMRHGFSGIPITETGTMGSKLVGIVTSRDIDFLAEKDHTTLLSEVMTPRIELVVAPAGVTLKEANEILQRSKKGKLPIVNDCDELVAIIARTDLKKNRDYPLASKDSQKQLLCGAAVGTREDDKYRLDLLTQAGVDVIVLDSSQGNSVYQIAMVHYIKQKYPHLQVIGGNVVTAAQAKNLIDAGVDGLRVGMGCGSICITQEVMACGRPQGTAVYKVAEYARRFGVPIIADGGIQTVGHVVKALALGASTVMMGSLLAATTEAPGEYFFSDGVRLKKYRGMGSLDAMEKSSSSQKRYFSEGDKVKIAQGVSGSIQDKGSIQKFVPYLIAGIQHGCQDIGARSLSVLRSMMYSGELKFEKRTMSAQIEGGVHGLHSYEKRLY

[2] = biological target: Inosine-5'-monophosphate dehydrogenase 2 (Homo sapiens, UniProt P12268); assay: Inhibitory activity against human Inosine-5'-monophosphate dehydrogenase 2 (IMPDH type II isoform)

| IC50 (K562) [nM] | Ki [2] [nM] | SMILES | Ki [1] [nM] |
| --- | --- | --- | --- |
| 1500 |  | COc1c(C)c2c(c(O)c1C/C=C(\C)CCCO)C(=O)OC2 |  |
| 1500 | 300 | COc1c(C)c2c(c(O)c1C/C=C(\C)CCCOP(=O)(O)CP(=O)(O)OC[C@@H]1OC(n3cnc4c(N)ncnc43)[C@@H](O)[C@H]1O)C(=O)OC2 (stereo not given in full) |  |

| SMILES | IC50 (K562) [nM] | Ki [2] [nM] | Ki [1] [nM] |
| --- | --- | --- | --- |
| COc1c(C)c2c(c(O)c1C/C=C(\C)CCC(=O)O)C(=O)OC2 [MYCOPHENOLIC ACID] | 80 |  | 33 |
